Earlier results, collected in patent US20090054334A1, “Combinatorial improvement of bifunctional drug properties” (priority 2007, published 2009).

What was measured:
[1] = in vivo
[2] = in vivo; remark: listed apart in the source

| distribution into protected cellular compartments, in the blood [1] | bioavailability [2] [%] | half life [2] [h] | blood-brain barrier crossing [2] | SMILES |
| --- | --- | --- | --- | --- |
| 72-98% | 20 | 11.3 |  | C=CC[C@@H]1/C=C(\C)C[C@H](C)C[C@H](OC)[C@H]2O[C@@](O)(C(=O)C(=O)N3CCCC[C@H]3C(=O)O[C@H](/C(C)=C/[C@@H]3CC[C@@H](O)[C@H](OC)C3)[C@H](C)[C@@H](O)CC1=O)[C@H](C)C[C@@H]2OC [FK506] |
|  | 50 |  | crosses the blood-brain barrier | CCC(C)(C)C(=O)C(=O)N1CCC[C@H]1C(=O)O [GPI-1485] |
